From patent US20240190889A1, “NEW CYCLOPENTA-THIENO-DIAZEPINE DERIVATIVES AS GABA A GAMMA1 POSITIVE ALLOSTERIC MODULATORS” (Hoffmann-La Roche Inc., priority 2021, published 2024)
Read-outs that look alike come from different tables or passages of the source.

Tests used:
[1] = target: human GABAA α1β2γ1 receptor (Homo sapiens (Human), UniProt P14867+Q8N1C3); assay: Radioligand binding assay, competition for [3H]RO7239181, γ1-containing GABAA subtypes
Protocol: (§1) Membrane Preparation and Binding Assay for γ1-containing GABAA Subtypes
(§2) The affinity of compounds at GABAA γ1 subunit-containing receptors was measured by competition for [^3H]RO7239181 (67.3 Ci/mmol: Roche) binding to membranes from HEK293F cells (ThermoFisher R79007) expressing human (transiently transfected) receptors of composition α5β2γ1, α2β2γ1, α1β2γ1.
(§3) Harvested pellets from HEK293F cells expressing the different GABAA receptor subtypes were resuspended in Mannitol Buffer pH 7.2-7.4 (Mannitol 0.29 M, Tricthylamine 10 mM. Acetic acid 10 mM. EDTA 1 mM plus protease inhibitors (20 tablets Complete. Roche Diagnostics Cat. No. 05 056 489 001 per liter)), washed two times and then resuspended at 1:10 to 1:15 dilution in the same buffer. Cell disruption was performed by stirring the suspension in a Parr vessel #4637 at 435 psi for 15 minutes, and then the suspensions were centrifuged at 1000×g for 15 minutes at 4° C. (Beckman Avanti J-HC: rotor JS-4.2). The supernatant (S1) was transferred in a 21 Schott flask and the pellet (P1) was resuspended with Mannitol Buffer up to 175 ml. The resuspended pellet was transferred into a 250 ml Corning centrifugal beaker and centrifuged at 1500 ×g for 10 minutes at 4° C. (Beckman Avanti J-HC: rotor JS-4.2). The supernatant (S1) was then transferred in the 21 Schott flask and the pellet was discarded. The supernatants (S1) were centrifuged in 500ml Beckman polypropylene centrifugal beaker at 15 000×g for 30 minutes at 4° C. (Beckman Avanti J-20 XP; rotor JLA-10.500). The pellet (P2) was resuspended with Mannitol Buffer 1:1 and frozen at −80° C. The supernatant (S2) was centrifuged in 100 ml Beckman polypropylene centrifugal tubes at 48000×g for 50 minutes at 4 °C (Beckman Avanti J-20 XP: rotor JA-18). The supernatant (S3) was discarded and the pellet (P3) was resuspended with 1:1 Mannitol Buffer. The P2 and P3 protein concentration was determined with the BIORAD Standard assay method with bovine serum albumin as standard and measured on the NANO-Drop 1000. The membrane suspension was aliquots (500μl per tube) and stored at −80° C. until required.
(§4) Membrane homogenates were resuspended and polytronised (Polytron PT1200E Kinematica AG) in Potassium Phosphate 10 mM, KCl 100 mM binding buffer at pH 7.4 to a final assay concentration determined with a previous experiment.
(§5) Radioligand binding assays were carried out in a volume of 200 μL (96-well plates) which contained 100 μL of cell membranes. […] Assays were incubated to equilibrium for 1 hour at 4° C. and then, membranes were filtered onto unifilter (96-well white microplate with bonded GF/C filters preincubated 20-50 minutes in 0.3% Polyethylenimine) with a Filtermate 196 harvester (Packard BioScience) and washed 4 times with cold Potassium Phosphate 10 mM pH 7.4. KCl 100 mM binding buffer. After anhydrousing, filter-retained radioactivity was detected by liquid scintillation counting. Ki values were calculated using Excel-Fit (Microsoft) and are the means of two determinations.

[2] = target: human GABAA α2β2γ1 receptor (Homo sapiens (Human), UniProt P47869+Q8N1C3); assay: as above
Protocol: as §1, §2, §3, §4, §5

[3] = target: human GABAA α1β3γ2 receptor (Homo sapiens (Human), UniProt P14867+P18507); assay: Radioligand binding assay, competition for [3H]Flumazenil, γ2-containing GABAA subtypes; details: for γ2/γ1 Selectivity Ratio: Ki α1β3γ2 (nM)/Ki α2β2γ1 (nM); for LogSel: Log[Ki α1β3γ2 (nM)/Ki α2β2γ1 (nM)]
Protocol: Membrane Preparation and Binding Assay for γ2-containing GABAA Subtypes
The affinity of compounds at GABAA γ2 subunit-containing receptors was measured by competition for [^3H]Flumazenil (81.1 Ci/mmol; Roche) binding to HEK293F cells expressing human (transiently transfected) receptors of composition α1β3γ2.
Harvested pellets from HEK293F cells expressing the different GABAA γ2 receptor subtypes were resuspended in Mannitol Buffer pH 7,2-7,4 and processed as described above for the cells expressing the GABAA γ1 subunit-containing receptors.
Assays were incubated to equilibrium for 1 hour at 4° C, and harvested onto GF/C uni-filters (Packard) by filtration using a Packard harvester and washing with ice-cold wash buffer (50 mM Tris; pH 7.5). After anhydrousing, filter-retained radioactivity was detected by liquid scintillation counting. Ki values were calculated using Excel-Fit (Microsoft) and are the means of two determinations.

[4] = read-out: Ki h-GABAA α2β2γ1, membranes from HEK293F cells, [3H]RO7239181 20-30 nM, mean of two determinations

| SMILES | Ki [1] [nM] | Ki [2] [nM] | Ki [2, 4] [nM] | Ki [3] [nM] | γ2/γ1 Selectivity Ratio [3] | LogSel [3] | Ki ([3]; HEK293F cell membranes, [3H]Flumazenil 1 nM, mean of two determinations, read-out: Ki h-GABAA α1β3γ2) [nM] |
| --- | --- | --- | --- | --- | --- | --- | --- |
| Cc1nnc2n1-c1sc3c(c1C(c1c(F)cccc1F)=N[C@H]2C)C[C@@H](C(F)F)C3 [Example 5, (7S,13R)-13-(difluoromethyl)-9-(2,6-difluorophenyl)-3,7-dimethyl-16-thia-2,4,5,8-tetrazatetracyclo [8.6.0.02,6.011,15]hexadeca-1(10),3,5,8,11(15)-pentaene] | 14.4 | 3.4 | 3.4 | 228 | 66.5 | 1.82 |  |
| C[C@@H]1N=C(c2c(F)cccc2F)c2c(sc3c2C[C@@H](C(F)F)C3)-n2c(C3CC3)nnc21 [Example 8, (7S,13R)-3-cyclopropyl-13-(difluoromethyl)-9-(2,6-difluorophenyl)-7-methyl-16-thia-2,4,5,8-tetrazatetracyclo [8.6.0.02,6.011,15]hexadeca-1(10),3,5,8,11(15)-pentaene] |  | 4.6 | 4.6 | 455 | 99.2 | 2.00 |  |
| Fc1cccc(Cl)c1C1=NCc2nnc(C3CC3)n2-c2sc3c(c21)C[C@@H](C(F)F)C3 [Example 6, (13R)-9-(2-chloro-6-fluoro-phenyl)-3-cyclopropyl-13-(difluoromethyl)-16-thia-2,4,5,8-tetrazatetracyclo [8.6.0.02,6.011,15]hexadeca-1(10),3,5,8,11(15)-pentaene] |  | 6.6 | 6.6 | 647 | 97.7 | 1.99 |  |
| Cc1nc2n(n1)-c1sc3c(c1C(c1c(F)cccc1F)=N[C@H]2C)C[C@H](C(F)F)C3 [Example 17, (7S,13S)-13-(difluoromethyl)-9-(2,6-difluorophenyl)-4,7-dimethyl-16-thia-2,3,5,8-tetrazatetracyclo [8.6.0.02,6.011,15]hexadeca-1(10),3,5,8,11(15)-pentaene] |  | 57.9 | 57.9 | 6640 | 114.8 | 2.06 |  |
| Cc1nnc2n1-c1sc3c(c1C(c1c(F)cccc1Cl)=N[C@H]2C)C[C@@H](C(F)F)C3 [Example 9, (7S,13R)-9-(2-chloro-6-fluoro-phenyl)-13-(difluoromethyl)-3,7-dimethyl-16-thia-2,4,5,8-tetrazatetracyclo [8.6.0.02,6.011,15]hexadeca-1(10),3,5,8,11(15)-pentaene] |  | 3.6 | 3.6 | 366 | 101.3 | 2.01 |  |
| Cc1nnc2n1-c1sc3c(c1C(c1c(F)cccc1Cl)=NC2)C[C@@H](C#N)C3 [Example 1, (13R)-9-(2-chloro-6-fluoro-phenyl)-3-methyl-16-thia-2,4,5,8-tetrazatetracyclo [8.6.0.02,6.011,15]hexadeca-1(10),3,5,8,11(15)-pentaene-13-carbonitrile] | 47.9 | 25.4 | 25.4 |  | 49.0 | 1.69 | 1250 |
| Cc1nnc2n1-c1sc3c(c1C(c1c(F)cccc1F)=NC2)C[C@@H](C(F)F)C3 [Example 3, (13R)-13-(difluoromethyl)-9-(2,6-difluorophenyl)-3-methyl-16-thia-2,4,5,8-tetrazatetracyclo [8.6.0.02,6.011,15]hexadeca-1(10),3,5,8,11(15)-pentaene] | 16.8 | 2.9 | 2.9 | 257 | 88.4 | 1.95 |  |
